{
  "source": "patent US8957238B2",
  "about": "“Process for preparing malathion for pharmaceutical use” (priority 2005, dated 2015)",
  "test": "Storage stability of dry pharmaceutical grade malathion, HPLC (Example 18)",
  "format": "physicochemical",
  "description": "Purity was determined using a high performance liquid chromatography (HPLC) instrument with a variable wavelength detector.\nIsomalathion content was determined using a high performance liquid chromatography (HPLC) instrument with a variable wavelength detector.\nFour (4) samples of Dry Pharmaceutical Grade Malathion from Example 16, each weighing about 3-3.5 grams, were placed in separate clear glass bottles closed by a cap coated with polytetrafluoroethylene (PTFE). Each bottle was then inserted into a separate black polyethylene (PE) bag, which was tightly closed with a strip fastener. Each bag was then placed in a separate carton box.\nThe four (4) samples were stored for three (3) months under the following conditions: • Sample One: 40° C.±2° C. and 75%±5% relative humidity, • Sample Two: 30° C.±2° C. and 60%±5% relative humidity, • Sample Three: 25° C.±2° C. and 60%±5% relative humidity, and • Sample Four: 5° C.±3° C. and ambient relative humidity\nThe purity of each sample was determined after storage for one (1), two (2), and three (3) months using HPLC as set forth above (See Methodology and Protocols: End-of-Process Determination of Assay, Purity, and Impurities Other Than Isomalathion, End-of-Process Determination of Isomalathion).",
  "key": {"[1]": {"settings": "Storage at 5° C. ± 3° C. and ambient relative humidity"}, "[2]": {"settings": "Storage at 25° C. ± 2° C. and 60% ± 5% relative humidity"}, "[3]": {"settings": "Storage at 30° C. ± 2° C. and 60% ± 5% relative humidity"}},
  "data": [
    {"compound": "CCOC(=O)CC(SP(=S)(OC)OC)C(=O)OCC", "note": "(stereo not drawn) [[(dimethoxyphosphinothioyl)thio]butanedioic acid diethyl ester]", "values": [
      {"measurement": "Diethyl fumarate Quantity After 1 Month", "setting": "[1]", "result": "<0.01 (LOD) % w/w"},
      {"measurement": "Diethyl fumarate Quantity After 2 Months", "setting": "[1]", "result": "<0.01 (LOD) % w/w"},
      {"measurement": "Diethyl fumarate Quantity After 3 Months", "setting": "[1]", "result": "<0.01 (LOD) % w/w"},
      {"measurement": "Dimethyl malathion Quantity After 1 Month", "setting": "[1]", "result": "<0.02 (LOD) % w/w"},
      {"measurement": "Dimethyl malathion Quantity After 2 Months", "setting": "[1]", "result": "<0.02 (LOD) % w/w"},
      {"measurement": "Dimethyl malathion Quantity After 3 Months", "setting": "[1]", "result": "<0.02 (LOD) % w/w"},
      {"measurement": "Isomalathion Quantity After 1 Month", "setting": "[1]", "result": "<0.02 (LOD) % w/w"},
      {"measurement": "Isomalathion Quantity After 2 Months", "setting": "[1]", "result": "<0.03 (LOQ) % w/w"},
      {"measurement": "Isomalathion Quantity After 3 Months", "setting": "[1]", "result": "<0.03 (LOQ) % w/w"},
      {"measurement": "Malaoxon Quantity After 1 Month", "setting": "[1]", "result": "<0.05 (LOD) % w/w"},
      {"measurement": "Malaoxon Quantity After 2 Months", "setting": "[1]", "result": "<0.05 (LOD) % w/w"},
      {"measurement": "Malaoxon Quantity After 3 Months", "setting": "[1]", "result": "<0.05 (LOD) % w/w"},
      {"measurement": "MeOOSPO Quantity After 1 Month", "setting": "[1]", "result": "<0.04 (LOD) % w/w"},
      {"measurement": "MeOOSPO Quantity After 2 Months", "setting": "[1]", "result": "<0.04 (LOD) % w/w"},
      {"measurement": "MeOOSPO Quantity After 3 Months", "setting": "[1]", "result": "<0.04 (LOD) % w/w"},
      {"measurement": "MeOOSPS Quantity After 1 Month", "setting": "[1]", "result": 0.1, "unit": "% w/w"},
      {"measurement": "MeOOSPS Quantity After 2 Months", "setting": "[1]", "result": 0.1, "unit": "% w/w"},
      {"measurement": "MeOOSPS Quantity After 3 Months", "setting": "[1]", "result": 0.1, "unit": "% w/w"},
      {"measurement": "MeOSSPO Quantity After 1 Month", "setting": "[1]", "result": "<0.02 (LOD) % w/w"},
      {"measurement": "MeOSSPO Quantity After 2 Months", "setting": "[1]", "result": "<0.02 (LOD) % w/w"},
      {"measurement": "MeOSSPO Quantity After 3 Months", "setting": "[1]", "result": "<0.02 (LOD) % w/w"},
      {"measurement": "Methyl malathion Quantity After 1 Month", "setting": "[1]", "result": 0.05, "unit": "% w/w"},
      {"measurement": "Methyl malathion Quantity After 2 Months", "setting": "[1]", "result": 0.06, "unit": "% w/w"},
      {"measurement": "Methyl malathion Quantity After 3 Months", "setting": "[1]", "result": 0.06, "unit": "% w/w"},
      {"measurement": "O,O-Me, Et Malathion analog Quantity After 1 Month", "setting": "[1]", "result": 0.07, "unit": "% w/w"},
      {"measurement": "O,O-Me, Et Malathion analog Quantity After 2 Months", "setting": "[1]", "result": 0.07, "unit": "% w/w"},
      {"measurement": "O,O-Me, Et Malathion analog Quantity After 3 Months", "setting": "[1]", "result": 0.07, "unit": "% w/w"},
      {"measurement": "Tetraethyl dithiodisuccinate Quantity After 1 Month", "setting": "[1]", "result": 0.06, "unit": "% w/w"},
      {"measurement": "Tetraethyl dithiodisuccinate Quantity After 2 Months", "setting": "[1]", "result": 0.06, "unit": "% w/w"},
      {"measurement": "Tetraethyl dithiodisuccinate Quantity After 3 Months", "setting": "[1]", "result": 0.06, "unit": "% w/w"},
      {"measurement": "Unknown (RRT = 0.38) Quantity After 1 Month", "setting": "[1]", "result": 0.04, "unit": "% w/w"},
      {"measurement": "Unknown (RRT = 0.38) Quantity After 2 Months", "setting": "[1]", "result": 0.04, "unit": "% w/w"},
      {"measurement": "Unknown (RRT = 0.38) Quantity After 3 Months", "setting": "[1]", "result": 0.04, "unit": "% w/w"},
      {"measurement": "Diethyl fumarate Quantity After 1 Month", "setting": "[2]", "result": "<0.01 (LOD) % w/w"},
      {"measurement": "Diethyl fumarate Quantity After 2 Months", "setting": "[2]", "result": "<0.01 (LOD) % w/w"},
      {"measurement": "Diethyl fumarate Quantity After 3 Months", "setting": "[2]", "result": "<0.01 (LOD) % w/w"},
      {"measurement": "Dimethyl malathion Quantity After 1 Month", "setting": "[2]", "result": "<0.02 (LOD) % w/w"},
      {"measurement": "Dimethyl malathion Quantity After 2 Months", "setting": "[2]", "result": "<0.02 (LOD) % w/w"},
      {"measurement": "Dimethyl malathion Quantity After 3 Months", "setting": "[2]", "result": "<0.02 (LOD) % w/w"},
      {"measurement": "Isomalathion Quantity After 1 Month", "setting": "[2]", "result": "<0.03 (LOQ) % w/w"},
      {"measurement": "Isomalathion Quantity After 2 Months", "setting": "[2]", "result": "<0.02 (LOD) % w/w"},
      {"measurement": "Isomalathion Quantity After 3 Months", "setting": "[2]", "result": 0.04, "unit": "% w/w"},
      {"measurement": "Malaoxon Quantity After 1 Month", "setting": "[2]", "result": "<0.05 (LOD) % w/w"},
      {"measurement": "Malaoxon Quantity After 2 Months", "setting": "[2]", "result": "<0.05 (LOD) % w/w"},
      {"measurement": "Malaoxon Quantity After 3 Months", "setting": "[2]", "result": "<0.05 (LOD) % w/w"},
      {"measurement": "MeOOSPO Quantity After 1 Month", "setting": "[2]", "result": "<0.04 (LOD) % w/w"},
      {"measurement": "MeOOSPO Quantity After 2 Months", "setting": "[2]", "result": "<0.04 (LOD) % w/w"},
      {"measurement": "MeOOSPO Quantity After 3 Months", "setting": "[2]", "result": "<0.04 (LOD) % w/w"},
      {"measurement": "MeOOSPS Quantity After 1 Month", "setting": "[2]", "result": 0.1, "unit": "% w/w"},
      {"measurement": "MeOOSPS Quantity After 2 Months", "setting": "[2]", "result": 0.1, "unit": "% w/w"},
      {"measurement": "MeOOSPS Quantity After 3 Months", "setting": "[2]", "result": 0.1, "unit": "% w/w"},
      {"measurement": "MeOSSPO Quantity After 1 Month", "setting": "[2]", "result": "<0.02 (LOD) % w/w"},
      {"measurement": "MeOSSPO Quantity After 2 Months", "setting": "[2]", "result": "<0.02 (LOD) % w/w"},
      {"measurement": "MeOSSPO Quantity After 3 Months", "setting": "[2]", "result": "<0.02 (LOD) % w/w"},
      {"measurement": "Methyl malathion Quantity After 1 Month", "setting": "[2]", "result": 0.05, "unit": "% w/w"},
      {"measurement": "Methyl malathion Quantity After 2 Months", "setting": "[2]", "result": 0.05, "unit": "% w/w"},
      {"measurement": "Methyl malathion Quantity After 3 Months", "setting": "[2]", "result": 0.06, "unit": "% w/w"},
      {"measurement": "O,O-Me, Et Malathion analog Quantity After 1 Month", "setting": "[2]", "result": 0.08, "unit": "% w/w"},
      {"measurement": "O,O-Me, Et Malathion analog Quantity After 2 Months", "setting": "[2]", "result": 0.07, "unit": "% w/w"},
      {"measurement": "O,O-Me, Et Malathion analog Quantity After 3 Months", "setting": "[2]", "result": 0.07, "unit": "% w/w"},
      {"measurement": "Tetraethyl dithiodisuccinate Quantity After 1 Month", "setting": "[2]", "result": 0.06, "unit": "% w/w"},
      {"measurement": "Tetraethyl dithiodisuccinate Quantity After 2 Months", "setting": "[2]", "result": 0.06, "unit": "% w/w"},
      {"measurement": "Tetraethyl dithiodisuccinate Quantity After 3 Months", "setting": "[2]", "result": 0.06, "unit": "% w/w"},
      {"measurement": "Unknown (RRT = 0.27) Quantity After 1 Month", "setting": "[2]", "result": "<0.02 (LOD) % w/w"},
      {"measurement": "Unknown (RRT = 0.27) Quantity After 2 Months", "setting": "[2]", "result": "<0.02 (LOD) % w/w"},
      {"measurement": "Unknown (RRT = 0.27) Quantity After 3 Months", "setting": "[2]", "result": 0.06, "unit": "% w/w"},
      {"measurement": "Unknown (RRT = 0.38) Quantity After 1 Month", "setting": "[2]", "result": 0.04, "unit": "% w/w"},
      {"measurement": "Unknown (RRT = 0.38) Quantity After 2 Months", "setting": "[2]", "result": 0.04, "unit": "% w/w"},
      {"measurement": "Unknown (RRT = 0.38) Quantity After 3 Months", "setting": "[2]", "result": 0.04, "unit": "% w/w"},
      {"measurement": "Diethyl fumarate Quantity After 1 Month", "setting": "[3]", "result": "<0.01 (LOD) % w/w"},
      {"measurement": "Diethyl fumarate Quantity After 2 Months", "setting": "[3]", "result": "<0.01 (LOD) % w/w"},
      {"measurement": "Diethyl fumarate Quantity After 3 Months", "setting": "[3]", "result": "<0.01 (LOD) % w/w"},
      {"measurement": "Dimethyl malathion Quantity After 1 Month", "setting": "[3]", "result": "<0.02 (LOD) % w/w"},
      {"measurement": "Dimethyl malathion Quantity After 2 Months", "setting": "[3]", "result": "<0.02 (LOD) % w/w"},
      {"measurement": "Dimethyl malathion Quantity After 3 Months", "setting": "[3]", "result": "<0.02 (LOD) % w/w"}
    ]}
  ]
}
